Several values for one entry are separate records, joined by “and”; a condition that tells them apart may be missing. Identical values can stand only once.
Legend:
ENL YEATS = target: T1, ENL YEATS (Homo sapiens, UniProt Q03111); assay: AlphaScreen assay with biotinylated ENL-S1 peptide; details: inhibition of ENL YEATS binding to ENL-S1 peptide; mean ± SD, n = 3; read-out: Alpha IC50 (nM) for ENL YEATS
T1 construct: final concentrations of 100 nM His-ENL YEATS, 100 nM Biotin-ENL-S1
T1 sequence (Q03111 1-138 limits assumed): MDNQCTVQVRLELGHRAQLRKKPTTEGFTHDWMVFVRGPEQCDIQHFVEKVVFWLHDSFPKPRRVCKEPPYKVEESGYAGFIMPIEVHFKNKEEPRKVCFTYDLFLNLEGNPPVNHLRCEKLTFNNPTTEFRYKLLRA
Description: The AlphaScreen assay was carried out in 384-well plates. Manual assay setup was performed in a 40 μL reaction buffer (50 mM HEPES pH 7.4, 100 mM NaCl, 0.1% bovine serum albumin, and 0.05% CHAPS) with final concentrations of 100 nM His-ENL YEATS, 100 nM Biotin-ENL-S1, and 20 μg/mL of AlphaScreen donor and acceptor beads. The protein, peptide, and compounds were mixed and incubated for 1 h at room temperature and then incubated for 30 min in dark after adding the α beads. AlphaScreen-signals were detected by a multimode microplate reader (BioTeK Synergy Neo2) equipped with an Alpha-laser (PerkinElmer).

[1] = In vitro metabolic stability assay in HLM; format: in vitro ADME, human; details: for half-life / half-life at 1 h: read-out: Liver Microsome t1/2; for parent compound remaining after 60 min incubation in HLM: in the presence of NADPH
Description: At 0, 5, 15, 30, 45, and 60 min, 200 μL acetonitrile (with the internal standard diclofenac as 10 μg/mL) was added to terminate the reaction, the remaining compound was analyzed by HPLC-MS/MS.

[2] = In vitro stability assay in human plasma; format: in vitro ADME; details: 37 °C; for Plasma % of parent compound remaining (after 2h incubation): 5 μM, mean ± SD, n = 3
Description: The in vitro stability analysis of a test compound was initiated by the addition of the test compound to 90 μL of prewarmed (37 °C) human plasma with a final concentration of 5 μM. All assays were performed in a plate shaker at 37 °C and conducted in triplicate. At 0, 5, 15, 30, 60, and 120 min, 400 μL acetonitrile (with the internal standard diclofenac as 10 μg/mL) was added to deproteinize the plasma and terminate the reaction, the remaining compound was then analyzed by HPLC-MS/MS.

NLuc-ENL YEATS = target: T2, NLuc-ENL YEATS (Homo sapiens, UniProt Q03111); assay: ENL-NanoBRET inhibitor competitive assay; format: cell-based; details: for IC50: HEK293T cells stably expressing NLuc-ENL YEATS, 1 μM Tracer 2, 2 h, mean ± SD, n = 3; for reduction in NanoBRET signal: concentrations up to 80 μM
T2 construct: DNA encoding the ENL YEATS domain (aa 1–148) was cloned into an NLuc containing plasmid; expressed in transfected cells
T2 sequence (Q03111 1-148): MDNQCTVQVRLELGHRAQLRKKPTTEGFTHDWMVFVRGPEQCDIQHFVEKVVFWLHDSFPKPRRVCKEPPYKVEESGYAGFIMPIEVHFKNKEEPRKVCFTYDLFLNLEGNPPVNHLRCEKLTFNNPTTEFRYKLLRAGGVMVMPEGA
Description: Approximately 1.8 × 10^4 HEK293T cells (100 μL) stably expressing NLuc-ENL YEATS were seeded into a white nonbinding 96-well assay plate and incubated overnight at 37 °C in a humidified 5% CO2 atmosphere. After removal of the medium, the cells were added with a tracer (with or without excess of unlabeled compound) in the Opti-MEM with 0.1% DMSO. After incubation at 37 °C for 2 h the assay plate was equilibrated at room temperature for 15 min. For BRET detection, the NanoGlo Substrate and the extracellular NanoLuc inhibitor (Promega, N2160) were diluted with Opti-MEM as described in protocol to afford detection solution. 50 μL of the detection solution was added per well and the plate was incubated for 3 min at room temperature. The donor emission was measured at 450 nm and the acceptor emission at 610 nm using a BioTek SYNERGY neo2 multimode reader. The BRET ratio was calculated according to the following formula: BRET ratio = [(acceptorsample/donorsample) – (acceptorno-tracer control/donorno-tracer control)] × 1000.
Sample procedures were followed for cell seeding as described in the previously described tracer affinity assay. After removal of the medium, the cells were added with a tracer in the medium (1.1 μM, 100 μL) and varied concentrations of a test compound in 0.1% DMSO (10 μL). The plate was thoroughly mixed on an orbital shaker for 15 s at 900 rpm. Then the cells were incubated at 37 °C, 5% CO2 for 2 h for BRET ratio detection as described previously.

[3] = Log D at pH 7.4 (chromatographic procedure); format: physicochemical; details: n-octanol / aqueous buffer pH 7.4, pH 7.4
Description: Log D at 7.4, which is a partition coefficient between n-octanol and aqueous buffer pH 7.4 of the compounds was measured on the chromatographic procedure whose condition was developed based on a published method.[35]

MOLM-13 cells [4] = assay: Anti-proliferation assay, MOLM-13; format: cell-based; details: 1 μM, approximately 2 weeks
Description: (§1) Cell proliferation assays were carried out in a 96-well tissue culture plate at 2 × 10^4 cells/well for all cell lines except in 200 μL with a compound added as 1:1000 dilution of DMSO stocks in triplicate. Culture density was determined every 3–4 days using the countess automated cell counter, after which 2 × 10^4 live cells were reseeded in fresh media and compound. The cumulative cell count was achieved by back calculation.

[5] = Cell toxicity assay (CCK-8), Jurkat; format: cell-based; details: human, Jurkat cells; 8 day treatment, n = 3; read-out: CC50 Jurkat (Cellular IC50, 8-days incubation)
Description: (§2) Approximately 1 × 10^4 JURKAT, MOLM-13, MV4-11 and HEK293T cells in RPMI 1640 (no phenol red) (100 μL) were added to a 96-well plate and treated with DMSO or a compound at indicated concentrations for 72 h or 8 days. Cell viability was measured using the CCK-8 kit (Abcam, ab228554) according to the manufacturer’s instructions.

MOLM-13 cells [6] = assay: Cell toxicity assay (CCK-8), MOLM-13; format: cell-based
Description: as §2

[7] = Cell toxicity assay (CCK-8), MOLM-13; format: cell-based; details: human, MOLM-13 cells, 8 day treatment, n = 3; read-out: CC50 MOLM-13 (Cellular IC50, 8-days incubation)
Description: as §2

[8] = Cell toxicity assay (CCK-8), HEK293T; format: cell-based; details: human, HEK293T cells; 72 h (3-days) treatment, n = 3; read-out: CC50 HEK293T (Cellular IC50, 3-days incubation)
Description: as §2

MV4-11 cells = assay: Anti-proliferation assay, MV4-11; format: cell-based; details: 1 μM, approximately 2 weeks
Description: as §1

ENL YEATS domain = target: T3, ENL YEATS domain (Homo sapiens, UniProt Q03111); assay: Biolayer interferometry (BLI); format: binding; details: biotinylated ENL YEATS on SSA biosensors, 1:1 model
T3 construct: Biotinylated-ENL YEATS was immobilized onto SSA biosensors; biotin (biotinylated)
T3 sequence (Q03111 1-138 limits assumed): T1 sequence (Q03111 1-138 limits assumed)
Description: Superstreptavidin biosensors were first incubated in an assay buffer (20 mM Tris, pH 7.8, 300 mM NaCl, 0.05% Tween 20, 0.1% DMSO) for 15 min. Sensors were coated with 40–60 μg/mL of biotinylated ENL for 15 min at room temperature. Inhibitors were serially diluted across a 96-well plate in a volume of 200 μL. Association of samples to either ENL- or uncoated reference sensors was measured over 300 s and dissociation over 300 s with baseline measurements (buffer only) for 300 s. All assays were run with continuous 1000 rpm shaking. Data were analyzed using the OctetRED data analysis software with reference subtraction in which reference uncoated sensors and reference samples were subtracted. Then, global kinetic fit was performed for all sonogram curves with a 1:1 model to get KD values.

[9] = Cell toxicity assay (CCK-8), MV4-11; format: cell-based; details: human, MV4-11 cells, 8 day treatment, n = 3; read-out: CC50 MV4-11 (Cellular IC50, 8-days incubation)
Description: as §2

[10] = human, human liver microsomes, pH 7.4, HLM 0.5 mg/mL, NADPH 1 mM, mean ± SD, n = 3, read-out: Liver Microsome CLint, pred
[11] = human, human liver microsomes, pH 7.4, HLM 0.5 mg/mL, NADPH 1 mM, mean ± SD, n = 3

Structure (SMILES)	CLint scaled at 1 h [1, 10] [mL/min/kg]	half-life at 1 h [1, 11] [h]	Plasma % of parent compound remaining (after 2h incubation) [2]	IC50 (NLuc-ENL YEATS) [nM]	chromatographic logD [3]	other results
CC(C)[C@H]1CCN1Cc1ccc(CNC(=O)c2ccc3nncn3c2)cc1 [13 (R), (R)-N-(4-((2-Isopropylazetidin-1-yl)methyl)benzyl)-[1,2,4]triazolo[4,3-a]pyridine-6-carboxamide]	–	–	–	–	–	IC50 (ENL YEATS): 2260 nM
CC(C)[C@@H]1CCN1Cc1ccc(CNC(=O)c2ccc3nncn3c2)cc1 [13 (S), (S)-N-(4-((2-isopropylazetidin-1-yl)methyl)benzyl)-[1,2,4]triazolo[4,3-a]pyridine-6-carboxamide]	–	–	–	–	–	IC50 (ENL YEATS): 970 nM
CC(C)[C@@H]1CCN1Cc1cc2cnc(NC(=O)c3ccc4nncn4c3)cc2[nH]1 [SR-C-107 (S), (S)-N-(2-((2-Isopropylazetidin-1-yl)methyl)-1H-pyrrolo[3,2-c]pyridin-6-yl)-[1,2,4]triazolo[4,3-a]pyridine-6-carboxamide]	10.9	2.76 ± 0.639	89.11 ± 6.07%	5670	0.89	half-life [1, 11]: 2.75 h; IC50 (ENL YEATS): 1380 nM
CC(C)C1CCN1Cc1cc2cnc(NC(=O)c3ccc4nncn4c3)cc2[nH]1 (centres unmarked) [SR-C-107]	8.69 ± 0.01	3.37 ± 0.421	90.77% and 90.77 ± 4.67%	1480	0.82	inhibition of MOLM-13 cell proliferation (MOLM-13 cells [4]): strong inhibition of cell proliferation; IC50 at 8 days [5]: > 64000 nM; IC50 (MOLM-13 cells [6]; 8 day treatment, n = 3, read-out: CC50 MOLM-13 (Cellular IC50, 8-days incubation)): 2570 ± 280 nM; IC50 at 8 days [7]: < 4000 nM; IC50 (ENL YEATS): 121 ± 28 nM; IC50 at 72 h [8]: > 64000 nM; inhibition of MV4-11 cell proliferation (MV4-11 cells): strong inhibition of cell proliferation; Kd (ENL YEATS domain): 565 nM
O=C(Nc1cc2[nH]c(CN3CCC3C3CC3)cc2cn1)c1ccc2nncn2c1 [YR-D-121]	3.51	8.29 ± 0.671	82.54 ± 6.09%	2360	0.13	IC50 at 8 days [5]: > 64000 nM; parent compound remaining after 60 min incubation in HLM [1]: over 90%; IC50 at 8 days [7]: 6960 nM; IC50 at 8 days [9]: 14200 nM; IC50 at 72 h [8]: > 64000 nM; degradation after 2 h incubation in human plasma [2]: approximately 15%; Kd (ENL YEATS domain): 1340 nM
CSc1ccc(CNC(=O)c2ccc3nncn3c2)cc1 [inhibitor 1]	22.2 ± 4.76	1.34 ± 0.292	84.81 ± 6.84%	1260	1.19	parent compound remaining after 60 min incubation in HLM [1]: about 60%; degradation after 2 h incubation in human plasma [2]: approximately 15%
CN(C)Cc1ccc(CNC(=O)c2ccc3nncn3c2)cc1 [inhibitor 7]	–	–	–	> 80000	0.28	–
O=C(NCc1ccc(CN2CCCCC2)cc1)c1ccc2nncn2c1 [inhibitor 8]	–	–	–	> 80000	0.11	reduction in NanoBRET signal (NLuc-ENL YEATS): minimal reductions in NanoBRET signal
O=C(NCc1ccc(CN2CCOCC2)cc1)c1ccc2nncn2c1 [inhibitor 9]	–	–	–	> 80000	-0.1	reduction in NanoBRET signal (NLuc-ENL YEATS): minimal reductions in NanoBRET signal
O=C(NCc1ccc(CN2CCC2)cc1)c1ccc2nncn2c1 [inhibitor 11]	–	–	–	–	0.17	reduction in NanoBRET signal (NLuc-ENL YEATS): minimal reductions in NanoBRET signal
CC1CCN1Cc1ccc(CNC(=O)c2ccc3nncn3c2)cc1 (centres unmarked) [inhibitor 12]	21.6 ± 1.89	1.35 ± 0.117	85.32 ± 3.24%	1340	-0.07	parent compound remaining after 60 min incubation in HLM [1]: about 60%; degradation after 2 h incubation in human plasma [2]: approximately 15%
CC(C)(C)C1CCN1Cc1ccc(CNC(=O)c2ccc3nncn3c2)cc1 (centres unmarked) [inhibitor 14]	–	–	97.60 ± 0.74%	> 20000	0.42	CLint scaled [1, 10]: 2.42 ± 0.14 mL/min/kg; half-life [1, 11]: 12 ± 0.741 h; inhibition at 64 µM (MOLM-13 cells [6]; Homo sapiens, MOLM-13, 64 μM, 72-h treatment, Figure S8f, read-out: growth inhibition in MOLM-13 cells): ~30%
O=C(NCc1cccc(CN2CCC2)c1)c1ccc2nncn2c1 [inhibitor 15]	6.93	4.23 ± 0.603	–	3260	0.29	parent compound remaining after 60 min incubation in HLM [1]: over 90%
O=C(NCc1ccc(CNc2ncc(F)cn2)cc1)c1ccc2nncn2c1 [inhibitor 24]	9.95	2.92 ± 0.22	88.42 ± 4.98%	–	0.96	degradation after 2 h incubation in human plasma [2]: approximately 15%
